How the values were obtained:
[1] = system: 4T1 transplanted tumors; experiment: Tumor-inhibition effect of P1 and P2-PDT on 4T1 xenografted mice; type: in vivo, Balb/c mice; details: for toxic effects of photosensitizer alone: without irradiation; for toxic effects of photosensitizer alone / tumor inhibition rate: 4T1 tumor-bearing mice; for tumor inhibition rate: day 22 after treatment
Procedure: Experimental groups: blank control (2 mice), P-1 alone treatment (4 mg/kg, 8 mice), P-2 alone treatment (2 mg/kg, 8 mice), P-1 treatment (2 mg/kg, 4 mg/kg, 8 mice/group) combined with light irradiations, P-2 treatment (1 mg/kg, 2 mg/kg, 4 mg/kg, 8 mice/group) combined with light irradiations, 66 Balb/c mice in total.

[2] = system: 7721 cells; experiment: MTT assay, photodynamic therapy on 7721 cells; type: cell-based, human
Excerpt: (§1) The cells in logarithmic growth phase were collected and inoculated on 24-well culture plates. When reaching 70%-80% confluence, cells were divided randomly into the following groups: control (the parallel control group without photosensitizer and irradiation), irradiation (irradiation treatment alone without photosensitizer); (photosensitizer treatment alone without irradiation), photodynamic treatment (treatment by photosensitizer in combination with irradiation). For the photosensitizer alone treatment group and photodynamic treatment group, an appropriate amount of Photohexer-1 (P-1) or Photohexer-2 (P-2) was respectively added away from light to give a final concentration of 0.8, 1.6, 3.2, 6.4 μM. Each group set 3 replicates. Cells were incubated with the active agent, different treatments were carried out according to the grouping. […] After treatment and digestion of each group of cells, it was inoculated into a 96-well plate at 100 μL/well, and four wells were set for each treatment. MTT assay was performed after 24 h from inoculation: 20 μL MTT solution was added to each well under the condition away from light, and the culture was continued for 4 hours. 150 μL DMSO was added to each well after discarding the supernatant. After 15 min of dissolution, the absorbance value (OD value) was measured using a microplate reader and the relative survival rate of cells was calculated according to the following formula: […]

[3] = system: Eca-109 cells; experiment: MTT assay, photodynamic therapy on Eca-109 cells; type: cell-based, human
Excerpt: as §1

[4] = Solubility determination in water; type: physicochemical; details: each ml of water; room temperature; read-out: solubility in water (amount dissolved by each ml of water)
Procedure: The solubility of Photohexer-1 and Photohexer-2 in water was determined by conventional methods in the art.

[5] = system: Caco2 cells; experiment: MTT assay, photodynamic therapy on Caco2 cells; type: cell-based, human
Excerpt: as §1

[6] = system: SW-480 cells; experiment: MTT assay, photodynamic therapy on SW-480 cells; type: cell-based, human
Excerpt: as §1

[7] = 4 mg/kg combined with light irradiation (50 J/cm^2)
[8] = combined with 50 J/cm^2 irradiation
[9] = 0.8 μM alone treatment, without irradiation
[10] = 0.8 μM combined with 2.6 J/cm^2 light irradiation
[11] = 0.8 μM combined with 5.2 J/cm^2 light irradiation
[12] = 0.8 μM combined with 10.4 J/cm^2 light irradiation
[13] = 1.6 μM alone treatment, without irradiation
[14] = 1.6 μM combined with 2.6 J/cm^2 light irradiation
[15] = 1.6 μM combined with 5.2 J/cm^2 light irradiation
[16] = 1.6 μM combined with 10.4 J/cm^2 light irradiation
[17] = 3.2 μM alone treatment, without irradiation
[18] = 3.2 μM combined with 2.6 J/cm^2 light irradiation
[19] = 3.2 μM combined with 5.2 J/cm^2 light irradiation
[20] = 3.2 μM combined with 10.4 J/cm^2 light irradiation
[21] = 6.4 μM alone treatment, without irradiation
[22] = 6.4 μM combined with 2.6 J/cm^2 light irradiation
[23] = 6.4 μM combined with 5.2 J/cm^2 light irradiation
[24] = 6.4 μM combined with 10.4 J/cm^2 light irradiation

C=CC1=C(C)c2cc3[nH]c(cc4nc(cc5[nH]c(cc1n2)c(C)c5CCC(=O)[O-])C(CCC(=O)[O-])=C4C)c(C)c3C(C)OCCCCCC.[Na+].[Na+] (stereo not drawn) [Photohexer P-1, 2-(1-hexyloxyethyl)-6,7-bis(propionatesodium)-1,3,5,8-tetramethyl-4-vinylporphyrin]
toxic effects of photosensitizer alone ([1]; 4 mg/kg alone): did not show significant toxic effects | tumor inhibition rate [1, 7]: 25.6% | photosensitizer activity on growth of 4T1 transplanted tumors [1, 8]: obvious dose-dependent activity | Cell survival rate [2, 9]: 101.56 ± 4.08% | Cell survival rate [2, 10]: 97.88 ± 4.08% | Cell survival rate [2, 11]: 95.52 ± 3.42% | Cell survival rate [2, 12]: 94.75 ± 4.13% | Cell survival rate [2, 13]: 100.75 ± 4.14% | Cell survival rate [2, 14]: 93.31 ± 3.99% | Cell survival rate [2, 15]: 92.36 ± 2.91% | Cell survival rate [2, 16]: 91.35 ± 3.59% | Cell survival rate [2, 17]: 97.51 ± 3.98% | Cell survival rate [2, 18]: 94.92 ± 3.80% | Cell survival rate [2, 19]: 92.13 ± 2.77% | Cell survival rate [2, 20]: 88.59 ± 2.96% | Cell survival rate [2, 21]: 96.52 ± 3.94% | Cell survival rate [2, 22]: 94.42 ± 3.87% | Cell survival rate [2, 23]: 90.25 ± 4.07% | Cell survival rate [2, 24]: 84.98 ± 1.97% | toxic and side effects ([2]; alone or in combination with light irradiation): no obvious toxic and side effects | photosensitive toxicity compared between P-1 and P-2 [3]: significantly stronger toxicity than that of P-2 | Cell survival rate [3, 9]: 99.32 ± 3.43% | Cell survival rate [3, 10]: 84.64 ± 3.79% | Cell survival rate [3, 11]: 74.34 ± 4.23% | Cell survival rate [3, 12]: 60.09 ± 4.54% | Cell survival rate [3, 13]: 97.28 ± 2.48% | Cell survival rate [3, 14]: 64.63 ± 2.39% | Cell survival rate [3, 15]: 66.40 ± 3.12% | Cell survival rate [3, 16]: 41.05 ± 3.47% | Cell survival rate [3, 17]: 92.81 ± 1.37% | Cell survival rate [3, 18]: 44.02 ± 2.05% | Cell survival rate [3, 19]: 41.43 ± 1.27% | Cell survival rate [3, 20]: 36.89 ± 2.26% | Cell survival rate [3, 21]: 80.68 ± 1.04% | Cell survival rate [3, 22]: 42.24 ± 1.01% | Cell survival rate [3, 23]: 37.97 ± 1.04% | Cell survival rate [3, 24]: 35.04 ± 1.34% | solubility [4]: ~3300 µg/mL | Cell survival rate [5, 9]: 99.34 ± 3.40% | Cell survival rate [5, 10]: 95.31 ± 3.86% | Cell survival rate [5, 11]: 93.10 ± 3.96% | Cell survival rate [5, 12]: 88.18 ± 4.24% | Cell survival rate [5, 13]: 97.36 ± 2.42% | Cell survival rate [5, 14]: 91.33 ± 2.69% | Cell survival rate [5, 15]: 89.01 ± 2.88% | Cell survival rate [5, 16]: 87.63 ± 3.49% | Cell survival rate [5, 17]: 95.34 ± 1.67% | Cell survival rate [5, 18]: 89.49 ± 2.15% | Cell survival rate [5, 19]: 87.46 ± 1.67% | Cell survival rate [5, 20]: 84.32 ± 2.76% | Cell survival rate [5, 21]: 83.33 ± 1.24% | Cell survival rate [5, 22]: 81.65 ± 1.07% | Cell survival rate [5, 23]: 74.26 ± 1.14% | Cell survival rate [5, 24]: 66.34 ± 1.17% | Cell survival rate [6, 9]: 101.14 ± 3.20% | Cell survival rate [6, 10]: 99.72 ± 3.16% | Cell survival rate [6, 11]: 95.61 ± 3.11% | Cell survival rate [6, 12]: 89.28 ± 3.01% | Cell survival rate [6, 13]: 100.83 ± 2.47% | Cell survival rate [6, 14]: 97.08 ± 2.89% | Cell survival rate [6, 15]: 94.55 ± 2.77% | Cell survival rate [6, 16]: 85.85 ± 2.68% | Cell survival rate [6, 17]: 98.02 ± 2.59% | Cell survival rate [6, 18]: 96.00 ± 2.24% | Cell survival rate [6, 19]: 85.27 ± 1.89% | Cell survival rate [6, 20]: 65.70 ± 2.01% | Cell survival rate [6, 21]: 91.27 ± 1.09% | Cell survival rate [6, 22]: 77.99 ± 1.22% | Cell survival rate [6, 23]: 65.38 ± 1.32% | Cell survival rate [6, 24]: 57.31 ± 1.03%

C=Cc1c(C)c2cc3nc(cc4[nH]c(cc5nc(cc1[nH]2)C(C)=C5C(C)OCCCCCC)c(C)c4CCC(=O)[O-])C(CCC(=O)[O-])=C3C.[Na+].[Na+] (stereo not drawn) [Photohexer P-2, 4-(1-hexyloxyethyl)-6,7-bis(propionatesodium)-1,3,5,8-tetramethyl-2-vinylporphyrin]
toxic effects of photosensitizer alone ([1]; 2 mg/kg alone): did not show significant toxic effects | tumor inhibition rate ([1]; 2 mg/kg combined with light irradiation (50 J/cm^2)): 23.35% | tumor inhibition rate [1, 7]: 44.68% | photosensitizer activity on growth of 4T1 transplanted tumors [1, 8]: obvious dose-dependent activity | volume of tumor relative to control group ([1]; combined with 50 J/cm^2 irradiation, 8th to 22nd days after treatment): about half the size of tumors of control group | Cell survival rate [2, 9]: 102.15 ± 4.07% | Cell survival rate [2, 10]: 98.29 ± 4.01% | Cell survival rate [2, 11]: 96.77 ± 3.76% | Cell survival rate [2, 12]: 95.91 ± 3.95% | Cell survival rate [2, 13]: 101.37 ± 3.36% | Cell survival rate [2, 14]: 94.78 ± 3.88% | Cell survival rate [2, 15]: 92.15 ± 3.64% | Cell survival rate [2, 16]: 91.44 ± 3.73% | Cell survival rate [2, 17]: 100.64 ± 2.98% | Cell survival rate [2, 18]: 92.15 ± 3.76% | Cell survival rate [2, 19]: 89.23 ± 3.35% | Cell survival rate [2, 20]: 78.32 ± 3.19% | Cell survival rate [2, 21]: 98.14 ± 2.53% | Cell survival rate [2, 22]: 88.02 ± 3.59% | Cell survival rate [2, 23]: 82.25 ± 2.79% | Cell survival rate [2, 24]: 71.15 ± 2.91% | toxicity alone ([2]; alone, without irradiation): no significant toxicity | cell toxicity with light ([2]; combination with a certain amount of light): stronger cell toxicity | Cell survival rate [3, 9]: 100.38 ± 4.27% | Cell survival rate [3, 10]: 96.96 ± 3.87% | Cell survival rate [3, 11]: 75.83 ± 4.22% | Cell survival rate [3, 12]: 59.89 ± 4.24% | Cell survival rate [3, 13]: 95.76 ± 3.16% | Cell survival rate [3, 14]: 86.66 ± 2.94% | Cell survival rate [3, 15]: 70.66 ± 3.78% | Cell survival rate [3, 16]: 51.36 ± 3.67% | Cell survival rate [3, 17]: 94.07 ± 2.58% | Cell survival rate [3, 18]: 79.33 ± 2.24% | Cell survival rate [3, 19]: 56.40 ± 2.33% | Cell survival rate [3, 20]: 40.90 ± 2.34% | Cell survival rate [3, 21]: 84.49 ± 1.32% | Cell survival rate [3, 22]: 83.57 ± 1.12% | Cell survival rate [3, 23]: 33.91 ± 1.07% | Cell survival rate [3, 24]: 33.91 ± 1.01% | solubility [4]: ~10000 µg/mL | Cell survival rate [5, 9]: 99.09 ± 4.27% | Cell survival rate [5, 10]: 98.47 ± 3.69% | Cell survival rate [5, 11]: 98.57 ± 4.26% | Cell survival rate [5, 12]: 73.07 ± 3.86% | Cell survival rate [5, 13]: 98.50 ± 3.63% | Cell survival rate [5, 14]: 88.31 ± 2.67% | Cell survival rate [5, 15]: 77.26 ± 3.66% | Cell survival rate [5, 16]: 58.33 ± 2.60% | Cell survival rate [5, 17]: 94.12 ± 2.54% | Cell survival rate [5, 18]: 75.55 ± 2.01% | Cell survival rate [5, 19]: 63.08 ± 2.35% | Cell survival rate [5, 20]: 47.94 ± 2.31% | Cell survival rate [5, 21]: 88.45 ± 1.44% | Cell survival rate [5, 22]: 64.87 ± 1.13% | Cell survival rate [5, 23]: 43.88 ± 1.14% | Cell survival rate [5, 24]: 37.06 ± 1.54% | killing effect of photodynamic therapy ([5]; dependent on concentration and light intensity): good killing effect | photodynamic activity compared between P-1 and P-2 [6]: better activity than P-1 | Cell survival rate [6, 9]: 101.79 ± 4.08% | Cell survival rate [6, 10]: 100.79 ± 3.76% | Cell survival rate [6, 11]: 96.70 ± 3.63% | Cell survival rate [6, 12]: 94.70 ± 4.16% | Cell survival rate [6, 13]: 96.97 ± 4.27% | Cell survival rate [6, 14]: 91.72 ± 2.89% | Cell survival rate [6, 15]: 87.06 ± 2.51% | Cell survival rate [6, 16]: 75.11 ± 3.24% | Cell survival rate [6, 17]: 68.15 ± 2.78% | Cell survival rate [6, 18]: 63.40 ± 2.24% | Cell survival rate [6, 19]: 53.01 ± 1.99% | Cell survival rate [6, 20]: 43.68 ± 2.54% | Cell survival rate [6, 21]: 57.31 ± 2.33% | Cell survival rate [6, 22]: 45.36 ± 1.22% | Cell survival rate [6, 23]: 42.56 ± 1.06% | Cell survival rate [6, 24]: 27.83 ± 1.13%

— patent publication US20170252442A1, “PHOTOHEXER COMPOUNDS AND PHARMACEUTICAL COMPOSITION AND USE THEREOF” (RAINBOW PHARMATECH LLC, priority 2014, published 2017)
